Results on 18 compounds are retold here after patent publication US20110178104A1, “Anti-Heparin Compounds” (POLYMEDIX INC., priority 2010, published 2011).

One assay has as its system fondaparinux. Kind of assay: FXa amidolytic assay (Example 10), fondaparinux. The conditions noted are these: read-out: Fondap FXa EC50; fondaparinux 0.02 μg/mL; human antithrombin, bovine Factor Xa.
The test system of another assay is Unfractionated heparin. The assay can be described thus: aPTT clotting assay, UFH 0.4 U/mL in plasma (Example 10). It counts as biochemical. The conditions noted are these: unfractionated heparin 0.4 U/mL in plasma; aPTT clotting. Here is the method:
aPTT clotting Assay: Unfractionated heparin was mixed with plasma at a final concentration of 0.4 U/mL (or concentration which increases aPTT time to between 120 and 300 seconds). […] The ACL Elite Hemostasis analyzer (Beckman Coulter™) was used to add aPTT reagent (HemosIL SynthASil) to supplemented plasma. Clotting was initiated by addition of CaCl2 and time to clot was recorded.

Assay [1] concerns isolated human erythrocytes. The assay can be described thus: in vitro. It counts as cell-based. The conditions noted are these: human RBC, 1 hour at 37° C.; for EC50: Homo sapiens, Erythrocyte, 1 h, read-out: Hemolysis EC50. Here is the method:
Hemolysis assay: Cytotoxicity was also evaluated in a hemolysis assay using isolated human erythrocytes. Pooled whole human blood was centrifuged to separate the red blood cells (RBC). The isolated RBCs were rinsed and diluted in Tris-buffered saline (TBS buffer, pH 7.4) to obtain a 0.22% RBC stock suspension. Serial two-fold dilutions of test agent were assayed over a concentration range of 1000 to 0.48 μg/ml with shaking for 1 hour at 37° C. At the conclusion of the incubation time, samples were centrifuged and 30 μl of the supernatant was added to 100 μl H2O. OD405 measurements were read for hemoglobin concentration. The bee venom peptide melittin was used as a positive control. EC50 values were determined using a four parameter logistic equation: Y=Bottom+(Top-Bottom)/(1+10̂((LogEC50-X)*HillSlope)).

For the next assay, the system named is tinzaparin. Kind of assay: FXa amidolytic assay (Example 10), tinzaparin. The conditions noted are these: read-out: Tinzap FXa EC50; tinzaparin 0.1 ug/ml; human antithrombin, bovine Factor Xa.
The test system of another assay is enoxaparin. The assay can be described thus: FXa amidolytic assay (Example 10), enoxaparin. The conditions noted are these: read-out: Enox FXa EC50; enoxaparin 0.1 ug/ml; human antithrombin, bovine Factor Xa.
The next assay concerns enoxaparin (ENOX). The assay can be described thus: FXa chromogenic assay (absence of plasma), enoxaparin. The conditions noted are these: enoxaparin 0.1 μg/mL, absence of plasma.
The test system of another assay is fondaparinux (FONDAPX). The assay can be described thus: FXa chromogenic assay (absence of plasma), fondaparinux. The conditions noted are these: fondaparinux 0.02 μg/mL, absence of plasma.
Assay [2] relates to unfractionated heparin (UFH). The assay can be described thus: aPTT clotting assay, UFH 0.2 U/mL in plasma (Example 7). The conditions noted are these: UFH 0.2 U/mL in plasma. The class given is biochemical. Here is the method: aPTT clotting Assay. Unfractionated heparin was mixed with plasma at a final concentration of 0.2 U/mL. […] The ACL Elite Hemostasis analyzer (Beckman Coulter™) was used to add aPTT reagent (HemosIL SynthASil) to supplemented plasma. Clotting was initiated by addition of CaCl2 and time to clot was recorded.

One may read the EC50 as the midpoint of the concentration-response curve.

Converted amounts (≈) assume the structure as drawn.

Protocol for tinzaparin: Two μl of test agent are added (range between 0.01 and 23 ug/ml) and incubated for 5 minutes at 23° C. Bovine Factor Xa was added to a final concentration of 0.636 nkat/mL and incubated for a further 10 minutes at 23° C.

Regarding `COc1ccc(NC(=O)[C@H](CCCNC(=N)N)NC(=O)c2cc(NC(=O)[C@H](CCCNC(=N)N)NC(=O)c3cc(NC(=O)[C@H](CCCNC(=N)N)NC(=O)c4cc(NC(=O)[C@@H](N)CCCNC(=N)N)ccc4OC)ccc3OCC(=O)O)ccc2OC)cc1C(N)=O` [Compound 288], the EC50 in the assay on fondaparinux came out at 390 nM; with Unfractionated heparin, 2020 nM; in the assay with tinzaparin it was 102 nM; in the assay on enoxaparin, 119 nM. Moreover, the “Hemolysis EC50” value in assay [1] is “no significant decrease”.
Take `COc1ccc(NC(=O)[C@@H](CCCNC(=N)N)NC(=O)c2cc(NC(=O)[C@@H](CCCNC(=N)N)NC(=O)c3cc(NC(=O)[C@@H](CCCNC(=N)N)NC(=O)c4cc(NC(=O)[C@H](N)CCCNC(=N)N)ccc4OC)ccc3OC)ccc2OC)cc1C(=O)N[C@H](Cc1c[nH]c2ccccc12)C(=O)O` [Compound 303]: the half-maximal effective concentration (EC50) with fondaparinux is 146 nM; in the assay on Unfractionated heparin, above 10000 nM; in assay [1], around 500 µg/mL (≈ 351 µM); with tinzaparin it was 189 nM; in the assay with enoxaparin it was 192 nM.
As to `COc1ccc(NC(=O)[C@H](CCCNC(=N)N)NC(=O)c2cc(NC(=O)[C@H](CCCNC(=N)N)NC(=O)c3cc(NC(=O)[C@H](CCC(=O)O)NC(=O)c4cc(NC(=O)[C@@H](N)CCCNC(=N)N)ccc4OC)ccc3OC)ccc2OC)cc1C(N)=O` [Compound 325], the 50% effective concentration (EC50) in the assay with fondaparinux is 2230 nM; in the assay with Unfractionated heparin it was 2700 nM; in assay [1] it was above 1000 µg/mL; with tinzaparin it was 213 nM; in the assay on enoxaparin, 505 nM.
In the same order, the values of `COc1ccc(NC(=O)[C@@H](CCCNC(=N)N)NC(=O)c2cc(NC(=O)[C@@H](CCCNC(=N)N)NC(=O)c3cc(NC(=O)[C@@H](CCCNC(=N)N)NC(=O)c4cc(NC(C)=O)ccc4OC)ccc3OCC(=O)O)ccc2OC)cc1C(=O)N[C@H](Cc1c[nH]c2ccccc12)C(N)=O` [Compound 308] are 192 nM, above 10000 nM, around 500 µg/mL (≈ 369 µM), 136 nM and 157 nM.
Consider `COc1ccc(NC(=O)[C@H](CCCCN)NC(=O)c2cc(NC(=O)[C@H](CCCCN)NC(=O)c3cc(NC(=O)[C@H](CCCCN)NC(=O)c4cc(NC(=O)[C@@H](N)CCCCN)ccc4OC)ccc3OC)ccc2OC)cc1C(=O)N[C@@H](Cc1ccc(O)cc1)C(=O)O` [Compound 265], for which the EC50 in the assay with fondaparinux was determined as 385 nM; with Unfractionated heparin it was 1450 nM; in the assay on tinzaparin, 120 nM; with enoxaparin it was 138 nM. Also, the “Hemolysis EC50” value in assay [1] is reported as “no significant decrease”.
The matching figures for `COc1ccc(NC(=O)[C@@H](CCCNC(=N)N)NC(=O)c2cc(NC(=O)[C@@H](CCCNC(=N)N)NC(=O)c3cc(NC(=O)[C@@H](CCCNC(=N)N)NC(=O)c4cc(NC(=O)[C@H](N)CCCNC(=N)N)ccc4OC)ccc3OC)ccc2OC)cc1C(=O)NCC(=O)O` [Compound 278]: 408 nM, 1990 nM, 132 nM, 150 nM and “no significant decrease”.
For the compound `COc1ccc(NC(=O)[C@@H](CCCNC(=N)N)NC(=O)c2cc(NC(=O)[C@@H](CCCNC(=N)N)NC(=O)c3cc(NC(=O)[C@@H](CCC(=O)O)NC(=O)c4cc(NC(=O)[C@H](N)CCCNC(=N)N)ccc4OC)ccc3OC)ccc2OC)cc1C(N)=O` [Compound 321], the EC50 with fondaparinux was 2690 nM; with Unfractionated heparin it was 1820 nM; in assay [1] it was above 1000 µg/mL; with tinzaparin, 225 nM; in the assay with enoxaparin it was 441 nM.
On to `COc1ccc(NC(=O)[C@H](CCCCN)NC(=O)c2cc(NC(=O)[C@H](CCCCN)NC(=O)c3cc(NC(=O)[C@H](CCC(=O)O)NC(=O)c4cc(NC(=O)[C@@H](N)CCCCN)ccc4OC)ccc3OC)ccc2OC)cc1C(N)=O` [Compound 317], for which the half-maximal effective concentration (EC50) with fondaparinux is 873 nM; in the assay on Unfractionated heparin, 1610 nM; in assay [1], above 1000 µg/mL; with tinzaparin, 178 nM; in the assay with enoxaparin, 293 nM.
Regarding `COc1ccc(NC(=O)[C@H](CCCCN)NC(=O)c2cc(NC(=O)[C@H](CCCCN)NC(=O)c3cc(NC(=O)[C@H](CCCCN)NC(=O)c4cc(NC(=O)[C@@H](N)Cc5c[nH]c6ccccc56)ccc4OC)ccc3OC)ccc2OCC(=O)O)cc1C(=O)N[C@@H](Cc1c[nH]c2ccccc12)C(N)=O` [Compound 334], the 50% effective concentration (EC50) is 224 nM in the assay on fondaparinux; above 10000 nM in the assay on Unfractionated heparin; around 15 µg/mL (≈ 10.6 µM) in assay [1]; 281 nM in the assay on tinzaparin; 249 nM in the assay on enoxaparin.
As for `COc1ccc(NC(=O)[C@H](CCCCN)NC(=O)c2cc(NC(=O)[C@H](CCCCN)NC(=O)c3cc(NC(=O)[C@H](CCCCN)NC(=O)c4cc(NC(=O)[C@@H](N)CCCCN)ccc4OC)ccc3OC)ccc2OC)cc1C(=O)Nc1cccc(C(=O)O)c1` [Compound 144], the “ENOX (FXa) EC50” value in the assay with enoxaparin (ENOX) is 0.244 µg/mL. Besides, in the assay on fondaparinux (FONDAPX), the “FONDAPX (FXa) EC50” value is 1.051 µg/mL. Further, the “UFH (aPTT) EC50” value in assay [2] amounted to 3.13 µg/mL.
The matching figures for `COc1cc(C(=O)Nc2cc(C(F)(F)F)cc(NC(=O)CCCCNC(=N)N)c2SCCN)c(OC)cc1C(=O)Nc1cc(C(F)(F)F)cc(NC(=O)CCCCNC(=N)N)c1SCCN` [Compound 88]: 0.24 µg/mL, 1.38 µg/mL and 4.30 µg/mL.
As for `COc1ccc(C(=O)N[C@H](CCCCN)C(=O)Nc2cc(C(=O)N[C@H](CCCCN)C(=O)Nc3cc(C(=O)N[C@H](CCCCN)C(=O)Nc4cc(C(N)=O)ccc4OC)ccc3OC)ccc2OC)cc1NC(=O)[C@H](N)CCCCN` [Compound 35], the “ENOX (FXa) EC50” value in the assay with enoxaparin (ENOX) stood at 45.00 µg/mL. Moreover, the “FONDAPX (FXa) EC50” value with fondaparinux (FONDAPX) was “inactive”. Also, the “UFH (aPTT) EC50” value in assay [2] came to 30.65 µg/mL.
The matching figures for `COc1ccc(NC(=O)[C@H](CCCCN)NC(=O)c2cc(NC(=O)[C@H](CCCCN)NC(=O)c3cc(NC(=O)[C@H](CCCCN)NC(=O)c4cnc(N)s4)ccc3OC)ccc2OC)cc1C(N)=O` [Compound 131]: 4.499 µg/mL, above 20 µg/mL and 3.68 µg/mL.
In the same order, the values of `COc1c(NC(=O)[C@@H](CCCCN)NC(=O)c2cccc(NC(=O)[C@@H](CCCCN)NC(=O)c3cccc(NC(=O)[C@@H](CCCCN)NC(=O)c4cccc(NC(=O)[C@H](N)CCCCN)c4OC)c3OC)c2OC)cccc1C(N)=O` [Compound 34] are 45.00 µg/mL, “inactive” and “inactive”.
In the same order, the values of `COc1ccc(NC(=O)[C@H](CCCCN)NC(=O)c2cc(NC(=O)[C@H](CCCCN)NC(=O)c3cc(NC(=O)[C@H](CCCCN)NC(=O)c4cc(NC(=O)[C@@H](N)CCCCN)ccc4OC)ccc3OC)ccc2OCC(=O)O)cc1C(N)=O` [Compound 117] are 0.9281 µg/mL, 7.052 µg/mL and 1.94 µg/mL.
For `COc1ccc(NC(=O)[C@H](CCCCN)NC(=O)c2cc(NC(=O)[C@H](CCCCN)NC(=O)c3cc(NC(=O)[C@H](CCCCN)NC(=O)c4cc(NC(=O)[C@@H](N)CCCCN)ccc4OC)ccc3OC)ccc2OC)cc1C(=O)N[C@@H](CCCNC(N)=O)C(=O)O` [Compound 142], in the assay with enoxaparin (ENOX), the “ENOX (FXa) EC50” value turned out to be 0.592 µg/mL. The “FONDAPX (FXa) EC50” value with fondaparinux (FONDAPX) stood at 7.045 µg/mL. The “UFH (aPTT) EC50” value in assay [2] worked out at 2.88 µg/mL.
The matching figures for `COc1ccc(NC(=O)[C@H](CCCCN)NC(=O)c2cc(NC(=O)[C@H](CCCCN)NC(=O)c3cc(NC(=O)[C@H](CCCCN)NC(=O)c4cc(NC(=O)[C@@H](N)CCCCN)ccc4OC)ccc3OC)ccc2SC)cc1C(N)=O` [Compound 133]: above 20 µg/mL, “inactive” and above 10 µg/mL.
The matching figures for `COc1cc(OC)c(C(=O)Nc2cc(C(F)(F)F)cc(NC(=O)CCCCNC(=N)N)c2SCCN)cc1C(=O)Nc1cc(C(F)(F)F)cc(NC(=O)CCCCNC(=N)N)c1SCCN` [Compound 1]: 0.18 µg/mL, “inactive” and “inactive”.
